Results: patent US20100173910A1, “TRIAMINOPYRIMIDINE CYCLOBUTENEDIONE DERIVATIVES USED AS PHOSPHATASE CDC25 INHIBITORS” (IPDRN PHSTMS D.S.S., priority 2007, published 2010)

How the values were obtained:
[1] = tested on: DU 145 (human prostate carcinoma cells); assay: Anti-proliferative activity, DU 145 cells (WST1 colorimetric test); assay type: cell-based; conditions: DU-145, 96 h, 96 hours treatment, up to 10 μM, nested upper bounds, read-out: IC50 for proliferation of the DU 145 cell lines
Method: (§1) ii) Characterisation of Anti-Proliferative Activity:
(§2) By way of an example, the effect of treating two human cell lines MIA PaCa-2 and DU 145 with the compounds of the examples described hereinbefore will be studied. The cell lines DU 145 (human prostate carcinoma cells) and MIA PaCa-2 (human pancreatic carcinoma cells) were obtained from the American Tissue Culture Collection (Rockville, Md., USA). A 96-well plate was inoculated on day 0 with cells in 80 μl of Dulbecco's modified Eagle's medium (Gibco-Brl, Cergy-Pontoise, France) with 10% heat-inactivated foetal calf serum (Gibco-Brl, Cergy-Pontoise, France), 50,000 units/l of penicillin and 50 mg/l of streptomycin (Gibco-Brl, Cergy-Pontoise, France) and 2 mM of glutamine (Gibco-Brl, Cergy-Pontoise, France). The cells were treated on day 1 for 96 hours with increasing concentrations of each test compound up to 10 μM. At the end of this period, cell proliferation is quantified by means of a colorimetric test based on cleavage of the tetrazolium salt WST1 by the mitochondrial dehydrogenases in the viable cells, resulting in formation of formazan (Boehringer Mannheim, Meylan, France). These tests are performed in duplicate with 8 determinations per concentration tested. For each test compound, the values within the linear part of the sigmoid curve were subjected to linear regression analysis and used to estimate the IC50 inhibitory concentration. The products are solubilised in dimethylsulfoxide (DMSO) at a concentration of 10^−2 M and used in culture with a final DMSO concentration of 0.1%.

[2] = tested on: MIA PaCa-2 (human pancreatic carcinoma cells); assay: Anti-proliferative activity, MIA PaCa-2 cells (WST1 colorimetric test); assay type: cell-based; conditions: MIA PaCa-2, 96 h, 96 hours treatment, up to 10 μM, nested upper bounds, read-out: IC50 for proliferation of the MIA PaCa-2 cell lines
Method: as §1, §2

[3] = molecular target: T1, purified recombinant CDC25C enzyme (MBP-CDC25C protein) (Homo sapiens, UniProt P30307); assay: Phosphatase activity of the purified recombinant CDC25C enzyme (OMFP dephosphorylation, fluorescence); assay type: biochemical; conditions: OMFP 500 μM, 4 hours at 30° C., three independent experiments; nested upper bounds; read-out: IC50 for the phosphatase activity of the purified recombinant CDC25-C enzyme
T1 construct: made in house
T1 sequence (P30307 1-473): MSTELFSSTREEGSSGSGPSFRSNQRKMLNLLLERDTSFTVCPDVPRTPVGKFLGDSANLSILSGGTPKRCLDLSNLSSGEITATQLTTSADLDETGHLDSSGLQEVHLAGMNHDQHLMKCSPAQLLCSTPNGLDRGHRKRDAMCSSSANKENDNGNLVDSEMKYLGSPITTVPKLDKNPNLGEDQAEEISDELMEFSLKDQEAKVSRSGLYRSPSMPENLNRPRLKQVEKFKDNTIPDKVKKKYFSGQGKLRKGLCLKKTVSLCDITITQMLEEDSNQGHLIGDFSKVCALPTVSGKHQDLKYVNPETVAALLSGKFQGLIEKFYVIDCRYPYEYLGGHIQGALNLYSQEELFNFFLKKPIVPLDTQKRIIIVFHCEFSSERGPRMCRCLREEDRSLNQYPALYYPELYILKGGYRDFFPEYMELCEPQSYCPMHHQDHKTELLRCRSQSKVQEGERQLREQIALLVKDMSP
Method: i) Determination of the Phosphatase Activity of the Purified Recombinant CDC25C Enzyme:
The phosphatase activity of the MBP-CDC25C protein is evaluated through its dephosphorylation of 3-O-methylfluorescein-phosphate (OMFP) to form 3-O-methylfluorescein (OMF), determining the fluorescence of the reaction product at 475 nm. This assay can be used to identify inhibitors of the recombinant CDC25 enzyme. The preparation of the MBP-CDC25C fusion protein is described in the PCT patent application published under the number WO 01/44467.
The reaction is performed in 384-well plates in a final volume of 50 μl. The MBP-CDC25C protein (prepared as described hereinabove) is stored in the following elution buffer: 20 mM Tris-HCl pH 7.4; 250 mM NaCl; 1 mM EDTA; 1 mM dithiothreitol (DTT); 10 mM maltose. It is diluted to a concentration of 60 μM in the following reaction buffer: 50 mM Tris-HCl pH 8.2; 50 mM NaCl; 1 mM DTT; 20% glycerol. The background noise is determined using with the buffer without adding the enzyme. The products are tested at decreasing concentrations from 40 μM. The reaction is initiated by the addition of OMFP solution to a final concentration of 500 μM (prepared immediately before use from a 12.5 mM stock solution in 100% DMSO (Sigma #M2629)). After 4 hours at 30° C. in a disposable 384-well plate, the fluorescence measured at OD 475 nm is read on a Victor^2 plate reader (EGG-Wallac). The concentration that produces 50% inhibition of the enzyme reaction is calculated from three independent experiments. Only the values that fall within the linear part of the sigmoid curve are used for the linear regression analysis.

Row | IC50 [1] | IC50 [2] | melting point | IC50 [3] | SMILES
1 | ≤ 10 µM | ≤ 10 µM | 209 to 211 °C | ≤ 5 µM | O=c1c(NCCNc2cc(N3CCCC3)nc(N3CCCC3)n2)c(Nc2cccc(Cl)c2)c1=O [Example 17, 3-[(3-chlorophenyl)amino]-4-({2-[(2,6-dipyrrolidin-1-ylpyrimidin-4-yl)amino]ethyl}amino)cyclobut-3-ene-1,2-dione]
2 | ≤ 10 µM | ≤ 10 µM | 218 to 220 °C | ≤ 5 µM | O=c1c(NCCNc2cc(N3CCCC3)nc(N3CCCC3)n2)c(Nc2ccc(C3CCCCC3)cc2)c1=O [Example 23, 3-[(4-cyclohexylphenyl)amino]-4-({2-[(2,6-dipyrrolidin-1-ylpyrimidin-4-yl)amino]ethyl}amino)cyclobut-3-ene-1,2-dione]
3 | ≤ 10 µM | ≤ 10 µM | 186 to 188 °C | ≤ 1 µM | CC(=O)c1ccc(Nc2c(NCCNc3cc(N4CCCC4)nc(N4CCCC4)n3)c(=O)c2=O)cc1 [Example 19, 3-[(4-acetylphenyl)amino]-4-({2-[(2,6-dipyrrolidin-1-ylpyrimidin-4-yl)amino]ethyl}amino)cyclobut-3-ene-1,2-dione]
4 | ≤ 10 µM | ≤ 10 µM | – | ≤ 1 µM | CCCc1ccc(Nc2c(NCCNc3cc(N4CCCC4)nc(N4CCCC4)n3)c(=O)c2=O)cc1 [Example 24, 3-({2-[(2,6-dipyrrolidin-1-ylpyrimidin-4-yl)amino]ethyl}amino)-4-[(4-propylphenyl)amino]cyclobut-3-ene-1,2-dione]
5 | ≤ 10 µM | ≤ 10 µM | 246 to 248 °C | ≤ 1 µM | O=c1c(NCCNc2cc(N3CCCC3)nc(N3CCCC3)n2)c(NCc2ccc(Cl)cc2)c1=O [Example 5, 3-[(4-chlorobenzyl)amino]-4-({2-[(2,6-dipyrrolidin-1-ylpyrimidin-4-yl)amino]ethyl}amino)cyclobut-3-ene-1,2-dione]
6 | ≤ 10 µM | ≤ 10 µM | 144 to 146 °C | ≤ 5 µM | CN(CCNc1cc(N2CCCC2)nc(N2CCCC2)n1)CCNc1c(Nc2ccc(Cl)cc2)c(=O)c1=O [Example 8, 3-[(4-chlorophenyl)amino]-4-({2-[{2-[(2,6-dipyrrolidin-1-ylpyrimidin-4-yl)amino]ethyl}(methyl)amino]ethyl}amino)cyclobut-3-ene-1,2-dione]
7 | ≤ 10 µM | ≤ 10 µM | – | ≤ 1 µM | CN(Cc1ccc(Nc2c(NCCNc3cc(N4CCCC4)nc(N4CCCC4)n3)c(=O)c2=O)cc1)C(=O)OC(C)(C)C [Example 21, tert-butyl (4-{[2-({2-[(2,6-dipyrrolidin-1-ylpyrimidin-4-yl)amino]ethyl}amino)-3,4-dioxocyclobut-1-en-1-yl]amino}benzyl)methylcarbamate]
8 | ≤ 10 µM | ≤ 10 µM | 241 to 243 °C | ≤ 1 µM | O=c1c(NCCNc2cc(N3CCCC3)nc(N3CCCC3)n2)c(Nc2ccc(F)cc2)c1=O [Example 31, 3-({2-[(2,6-dipyrrolidin-1-ylpyrimidin-4-yl)amino]ethyl}amino)-4-[(4-fluorophenyl)amino]cyclobut-3-ene-1,2-dione]
9 | ≤ 10 µM | ≤ 10 µM | 205 to 207 °C | ≤ 5 µM | COc1cccc(Nc2c(NCCNc3cc(N4CCCC4)nc(N4CCCC4)n3)c(=O)c2=O)c1 [Example 20, 3-({2-[(2,6-dipyrrolidin-1-ylpyrimidin-4-yl)amino]ethyl}amino)-4-[(3-methoxyphenyl)amino]cyclobut-3-ene-1,2-dione]
10 | ≤ 10 µM | ≤ 10 µM | 180 to 190 °C | ≤ 1 µM | O=c1c(NCCNc2cc(N3CCCC3)nc(N3CCCC3)n2)c(Nc2ccc3c(c2)OCO3)c1=O [Example 26, 3-(1,3-benzodioxol-5-ylamino)-4-({2-[(2,6-dipyrrolidin-1-ylpyrimidin-4-yl)amino]ethyl}amino)cyclobut-3-ene-1,2-dione]
11 | ≤ 10 µM | – | > 250 °C | ≤ 1 µM | O=c1c(NCCNc2cc(N3CCCC3)nc(N3CCCC3)n2)c(Nc2ccc(C(F)(F)F)cc2)c1=O [Example 32, 3-({2-[(2,6-dipyrrolidin-1-ylpyrimidin-4-yl)amino]ethyl}amino)-4-{[4-(trifluoromethyl)phenyl]amino}cyclobut-3-ene-1,2-dione]
12 | ≤ 10 µM | ≤ 10 µM | 235 to 237 °C | ≤ 1 µM | COc1ccc(Nc2c(NCCNc3cc(N4CCCC4)nc(N4CCCC4)n3)c(=O)c2=O)cc1 [Example 18, 3-({2-[(2,6-dipyrrolidin-1-ylpyrimidin-4-yl)amino]ethyl}amino)-4-[(4-methoxyphenyl)amino]cyclobut-3-ene-1,2-dione]
13 | ≤ 10 µM | ≤ 10 µM | 216 to 218 °C | ≤ 15 µM | O=c1c(NCCNc2cc(N3CCCC3)nc(N3CCCC3)n2)c(Nc2ccc(Cl)c(C(F)(F)F)c2)c1=O [Example 10, 3-{[4-chloro-3-(trifluoromethyl)phenyl]amino}-4-({2-[(2,6-dipyrrolidin-1-ylpyrimidin-4-yl)amino]ethyl}amino)cyclobut-3-ene-1,2-dione]
14 | ≤ 10 µM | ≤ 10 µM | 216 to 218 °C | ≤ 1 µM | CC(C)(C)OC(=O)NCCc1ccc(Nc2c(NCCNc3cc(N4CCCC4)nc(N4CCCC4)n3)c(=O)c2=O)cc1 [Example 29, tert-butyl [2-(4-{[2-({2-[(2,6-dipyrrolidin-1-ylpyrimidin-4-yl)amino]ethyl}amino)-3,4-dioxocyclobut-1-en-1-yl]amino}phenyl)ethyl]carbamate]
15 | ≤ 10 µM | – | – | ≤ 1 µM | O=c1c(NCCNc2cc(N3CCCC3)nc(N3CCCC3)n2)c(Nc2ccc([N+](=O)[O-])cc2)c1=O [Example 34, 3-({2-[(2,6-dipyrrolidin-1-ylpyrimidin-4-yl)amino]ethyl}amino)-4-[(4-nitrophenyl)amino]cyclobut-3-ene-1,2-dione]
16 | ≤ 10 µM | – | 192 to 194 °C | ≤ 1 µM | O=c1c(NCCNc2cc(N3CCCC3)nc(N3CCCC3)n2)c(Nc2cc(F)cc(F)c2)c1=O [Example 15, 3-[(3,5-difluorophenyl)amino]-4-({2-[(2,6-dipyrrolidin-1-ylpyrimidin-4-yl)amino]ethyl}amino)cyclobut-3-ene-1,2-dione]
17 | ≤ 10 µM | – | – | ≤ 1 µM | O=c1c(NCCNc2cc(N3CCCC3)nc(N3CCCC3)n2)c(Nc2ccc(Cl)c(F)c2)c1=O [Example 36, 3-[(4-chloro-3-fluorophenyl)amino]-4-({2-[(2,6-dipyrrolidin-1-ylpyrimidin-4-yl)amino]ethyl}amino)cyclobut-3-ene-1,2-dione]
